Measurements taken from patent US20160244453A1, “TREATMENT OF VIRAL AND INFECTIOUS DISEASES USING AN INHIBITOR OF CBP/CATENIN” (PRISM PHARMA CO., LTD., priority 2013, published 2016).

Columns and labels:
Format in all cases: cell-based
CD4 Tscm = assay: In vitro culture assay of sorted CD4 Tscm, phenotype by flow cytometry; conditions: 10 d incubation with rhIL-15; compared to control experiments
Description: (§1) PBMC were stained with monoclonal antibodies directed against CD4, CD3, CD45RA, CCR7, CD62L, CD122, CD95, according to standard protocols. After 20 minutes, CCR7+ CD45RA+ naïve CD4 T cells, CCR7+ CD45RA− central-memory CD4 T cells (CD4 Tcm), CCR7− CD45RA− CD4 T cells, CCR7− CD45RA+ terminally-differentiated CD4 T cells (CD4 Ttd) and CCR7+ CD45RA+ CD62L+ CD95+ CD122+ T memory stem cell CD4 T cells (CD4 Tscm) were live sorted in a specifically designated biosafety cabinet (Baker Hood), using a FACS Aria cell sorter (BD Biosciences) at 70 pounds per square inch. For phenotypic characterization, cells were additionally stained with CCR5 or CXCR4 antibodies, or Annexin V, and acquired on a LSRII flow cytometer (BD Biosciences). Data were analyzed using FlowJo software (Treestar).
(§2) Selected CD4 T cell subsets were isolated by cell sorting, labeled cells with 2 μM CFSE for 7 min at 37° C., and incubated with rhIL-15 (25 ng/ml; Peprotech) for 10 d in the presence or absence of Compound C, (6S,9S,9aS)-N-benzyl-6-(4-hydroxybenzyl)-2,9-dimethyl-4,7-dioxo-8-(quinolin-8-ylmethyl)octahydro-1H-pyrazino[2,1-c][1,2,4]triazine-1-carboxamide (Prism Biolabs). Afterwards, cells were harvested and phenotypically characterized by flow cytometry. […]

HIV = HIV replication in macrophages, HIV p24 antigen released into culture supernatants; conditions: macrophages pretreated 24 hours; infection monitored 10 days; concentrations 100 pM to 2 μM
Description: For these experiments, peripheral blood mononuclear cells (PBMCs) were isolated from HIV seronegative donors and differentiated into macrophages for 7-10 days using methods previously described (J Biol Chem 286: 18890-18902 (2011); PLoS Pathogens 8(5):e1002689 pp 1-13 (2012); PLoS Pathogens 8(11):e1003017 (2012)). The macrophages were pretreated for 24 hours with Compound C, which is the β-catenin inhibitor (6S,9S,9aS)-N-benzyl-6-(4-hydroxybenzyl)-2,9-dimethyl-4,7-dioxo-8-(quinolin-8-ylmethyl)octahydro-1H-pyrazino[2,1-c][1,2,4]triazine-1-carboxamide. Macrophages were treated with Compound C at increasing concentrations and productive infection was monitored for 10 days by detection of HIV p24 antigen released into the culture supernatants.

CD4 Tcm = assay: In vitro culture assay of sorted CD4 Tcm, phenotype by flow cytometry; conditions: 10 d incubation with rhIL-15; compared to control experiments
Description: as §1, §2

[1] = tested on: Sequestome 1/p62 (SQSTM1); assay: Autophagic flux in macrophages, SQSTM1/p62 immunoblotting; conditions: Compound A 1 and 2 μM, rapamycin 100 nM, immunoblot
Description: (§3) For these studies, macrophages were exposed to rapamycin 100 nM (a known inducer of autophagic flux), proteins were extracted and subjected to immunoblotting.
In addition, the inventors looked at another marker of autophagic flux (sequestosome 1, also called SQSTIM1 or p62). During active autophagy, SQSTIM1 is degraded (decreased).

LC3B = assay: Autophagy induction in macrophages, LC3B immunoblotting
Source text: Microtubule-associated protein 1A/1B-light chain 3 (LC3) is a soluble protein that is distributed ubiquitously in mammalian tissues and cultured cells (reviewed in Methods Mol. Biol. 445, 77-88 (2008). During autophagy, autophagosomes engulf cytoplasmic components, including cytosolic proteins and organelles. Concomitantly, a cytosolic form of LC3 (LC3-I) is conjugated to phosphatidylethanolamine to form LC3-phosphatidylethanolamine conjugate (LC3-II), which is recruited to autophagosomal membranes. Autophagosomes fuse with lysosomes to form autolysosomes, and intra-autophagosomal components are degraded by lysosomal hydrolases. At the same time, LC3-II in autolysosomal lumen is degraded. Thus, lysosomal turnover of the autophagosomal marker LC3-II reflects starvation-induced autophagic activity, and detecting LC3 by immunoblotting or immunofluorescence is an indicator of autophagy and autophagy-related processes, including autophagic cell death.
as §3
During autophagy, LC3B (LC3B-I) forms LC3B-phosphatidylethanolamine conjugate (LC3B-II), which is recruited to autophagosomal membranes. When there is autophagic flux there is lipidation of LC3B-I that results in conversion of LC3B-II. Thus, during autophagic flux the relative quantity of LC3B-II is increased compared to LC3B-I.

| SMILES | differentiation of Tscm into more mature CCR7− CD62L− CD4 T cell populations (CD4 Tscm) | HIV replication (HIV p24 antigen) (HIV) | differentiation of Tcm into more mature CCR7− CD62L− CD4 T cell populations (CD4 Tcm) | SQSTM1 (p62) levels relative to negative control [1] | induction of autophagy (LC3B; 1 and 2 μM) | levels of LC3B II and LC3B I relative to negative control (LC3B; Compound A 2 μM, rapamycin 100 nM, immunoblot) | amount of LC3B II and LC3B I relative to negative control (LC3B; Compound A 1 and 2 μM, rapamycin 100 nM, immunoblot) |
| --- | --- | --- | --- | --- | --- | --- | --- |
| C[C@H]1[C@H]2N(C(=O)CN(C)N2C(=O)NCc2ccccc2)[C@@H](Cc2ccc(O)cc2)C(=O)N1Cc1cccc2cccnc12 [Compound C, (6S,9S,9aS)-N-benzyl-6-(4-hydroxybenzyl)-2,9-dimethyl-4,7-dioxo-8-(quinolin-8-ylmethyl)octahydro-1H-pyrazino[2,1-c][1,2,4]triazine-1-carboxamide] | substantially facilitated differentiation | inhibits HIV in a dose dependent manner | to a lesser extent | – | – | – | – |
| C[C@H]1[C@H]2N(C(=O)CN(C)N2C(=O)NCc2ccccc2)[C@@H](Cc2ccc(OP(=O)(O)O)cc2)C(=O)N1Cc1cccc2cccnc12 [Compound A, 4-(((6S,9S,9aS)-1-(benzylcarbamoyl)-2,9-dimethyl-4,7-dioxo-8-(quinolin-8-ylmethyl)octahydro-1H-pyrazino[2,1-c][1,2,4]triazin-6-yl)methyl)phenyl dihydrogen phosphate] | – | – | – | reduced | induces autophagy | greatly reduced | increased amount of LC3B II and decreased amount of LC3B I |
